Assay results from patent publication US8318812B2, “Therapeutic agents for the treatment of lymphoid malignancies” (The Ohio State University Research Foundation, priority 2006, dated 2012).

What was measured:
[1] = system: MEC, Ramos, Raji, 697 and RS4-11 B cell lines; assay: Annexin V/PI viability by flow cytometry in B cell lines; assay type: cell-based, Human; details: 0.6-10 uM FTY720; 24 and 48 hours
Description: Cells: Blood was obtained from patients with B-cell CLL with informed consent under a protocol approved by the hospital internal review board. All patients examined in this series had immunophenotypically defined CLL as outlined by the modified 96 National Cancer Institute criteria. B-CLL cells were isolated from freshly donated blood using ficoll density gradient centrifugation (Ficoll-Paque Plus, Amershan Biosciences, Piscataway, N.J.). Isolated mononuclear cells were incubated in RPMI 1640 media (Gibco/Invitrogen, Carlsbad, Calif.) supplemented with 10% heat-inactivated fetal bovine serum (FBS, Hyclone Laboratories, Logan, Utah), 2 mM L-glutamine (Invitrogen, Carlsbad, Calif.), and penicillin (100 U/mL)/streptomycin (100 μg/ml) [Sigma-Aldrich, St. Louis] at 37° C. in an atmosphere of 5% CO2. Freshly isolated B-CLL cells were used in all experiments described herein. […]
Analysis of cell viability and apoptosis: The cell viability was carried out by dual staining with Annexin V conjugated to flourescein-isothyocyanate (FITC) and Propidium iodide (PI) as described previously. Briefly, 1×10^6 cells were stained with Annexin V-FITC (BD Pharmingen) and Propidium iodide (BD Pharmingen) for 15 minutes in dark and analyzed by flow cytometry using a Beckman-Coulter EPICS XL cytometer (Beckman-Coulter, Miami, Fla.). […]

AML cell lines = assay: Cell cycle analysis (propidium iodide DNA content) in AML cell lines; assay type: cell-based; details: 1 uM and 10 uM, 48 hours
Description: Cell suspensions were treated with vehicle control, 1 uM, and 10 uM FTY720 for 48 hours. After fixation in ethanol, samples were stained with propidium iodide, and assessed for DNA content. Percentage of cells in subG1, G1, S, and G2-M for each cell line are depicted (FIG. 11A) with representative plots below for MV411 (FIG. 11B). Although cell cycle arrest is not seen, induction of apoptosis is noted by the increased fraction of sub G1 with FTY720 treatment.

## CCCCCCCCc1ccc(CCC(N)(CO)CO)cc1.Cl [FTY720, 2-Amino-2-[2-(4-octylphenyl)ethyl]propane 1,3-diol hydrochloride]
[1]
  viable cells (Annexin V-/PI-): dose dependent inhibition of viable cells
AML cell lines
  cell cycle arrest in AML cell lines: does not cause cell cycle arrest
